These results are taken from ChEMBL document CHEMBL6109180, “De Novo-Designed APC/C Inhibitors Provide a Rationale for Targeting RING-Type E3 Ubiquitin Ligases” (J Med Chem, 2025).

Data set [1] has as its system HeLa. As to the kind of experiment: Inhibition of recombinant APC/C/cdc20 (unknown origin) in metaphase-synchronized human HeLa cells co-expressing GST-tagged UBA1/UBE2C/methylated ubiquitin using RD680-labeled securin as substrate at 100 uM measured after 45 mins in presence of ATP by immuno-precipitation method. Type of data set: cell-based.
Data set [2] deals with HeLa. As to the kind of experiment: Inhibition of recombinant APC/C/cdc20 (unknown origin) in metaphase-synchronized human HeLa cells co-expressing GST-tagged UBA1/UBE2C/methylated ubiquitin using cyclin B1 as substrate at 100 uM measured after 45 mins in presence of ATP by immuno-precipitation method.
Data set [3] relates to HeLa. As to the kind of experiment: Inhibition of recombinant APC/C/cdc20 (unknown origin) in metaphase-synchronized human HeLa cells co-expressing GST-tagged UBA1/UBE2D1/methylated ubiquitin using cyclin B1 as substrate at 100 uM measured after 45 mins in presence of ATP by immuno-precipitation method.
For data set [4], the system named is HeLa. As to the kind of experiment: Inhibition of recombinant APC/C/cdc20 (unknown origin) in metaphase-synchronized human HeLa cells co-expressing GST-tagged UBA1/UBE2S/methylated ubiquitin using cyclin B1 as substrate at 100 uM measured after 45 mins in presence of ATP by immuno-precipitation method. The class given is cell-based.
Data set [5] deals with HeLa. As to the kind of experiment: Inhibition of recombinant APC/C/cdc20 (unknown origin) in metaphase-synchronized human HeLa cells co-expressing GST-tagged UBA1/UBE2S/methylated ubiquitin using cyclin B1 as substrate assessed as decrease in UBE2S-driven chain elongation at 100 uM measured after 45 mins in presence of ATP by immuno-precipitation method. Type of data set: cell-based.

Data set [6] has as its target T1, Ubiquitin-conjugating enzyme E2 C (Homo sapiens) (UniProt O00762).
T1 sequence (whole entry): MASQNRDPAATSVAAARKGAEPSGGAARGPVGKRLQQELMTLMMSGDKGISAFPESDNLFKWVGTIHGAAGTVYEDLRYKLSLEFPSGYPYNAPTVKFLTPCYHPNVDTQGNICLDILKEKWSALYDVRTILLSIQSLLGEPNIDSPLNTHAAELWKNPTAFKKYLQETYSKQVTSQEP
As to the kind of experiment: Inhibition of UBE2C (unknown origin) auto-ubiquitination at 100 uM measured after 45 mins in presence of UBA1/His6-ubiquitin/ATP by SDS-PAGE analysis.

The subject of data set [7] is HeLa. As to the kind of experiment: Inhibition of recombinant APC/C/cdc20 (unknown origin) in metaphase-synchronized human HeLa cells co-expressing GST-tagged UBA1/UBE2C/methylated ubiquitin using RD680-labeled securin as substrate at 25 uM measured after 45 mins in presence of ATP by immuno-precipitation method relative to control.
A short description of data set [8]: Inhibition of recombinant APC/C/cdc20 (unknown origin) in metaphase-synchronized human HeLa cells co-expressing GST-tagged UBA1/UBE2C/methylated ubiquitin using RD680-labeled securin as substrate measured after 45 mins in presence of ATP by immuno-precipitation method.
The nature of data set [9]: Non-competitve inhibition of recombinant APC/C/cdc20 (unknown origin) in metaphase-synchronized human HeLa cells co-expressing GST-tagged UBA1/UBE2C/methylated ubiquitin using RD680-labeled securin as substrate measured after 45 mins in presence of ATP by immuno-precipitation method. The class given is cell-based.
A further data set is filed under the species Homo sapiens. As to the kind of experiment: Potency index, ratio of Apcin IC50 to test compound IC50 for inhibition of APC/C (unknown origin).
A further data set has as its system TERT-RPE1. As to the kind of experiment: Effect on time length of mitosis in human RPE-1 cells at 50 uM measured for 10 to 24 hrs by bright field microscopy. Type of data set: functional, cell-based. To be noted: time 10-24 hrs.
Data set [10] can be described thus: Drug localization in cytoplasm of human HeLa cells at 50 uM incubated for 10 hrs by AF488 dye based analysis. The class given is ADME, subcellular.
A short description of data set [11]: Drug localization in nucleoplasm of human HeLa cells at 50 uM incubated for 10 hrs by AF488 dye based analysis. Type of data set: ADME, subcellular.
The nature of data set [12]: Drug localization in nucleus of human HeLa cells at 50 uM incubated for 4 to 10 hrs by AF488 dye based analysis. The note with it: time 4-10 hrs. The class given is ADME, subcellular.
Data set [13] has as its system HeLa. As to the kind of experiment: Induction of mitosis prolongation in human HeLa cells assessed as time taken at 50 uM measured for 10 to 48 hrs by live cell imaging analysis. The class given is functional. The note with it: time 10-48 hrs.
In data set [14] the test system is HeLa. As to the kind of experiment: Binding affinity to APC2 in asynchronous human HeLa cells incubated for 2 hrs by pull down assay. Type of data set: cell-based.
Data set [15] deals with Anaphase-promoting complex subunit 11 (Homo sapiens) (UniProt Q9NYG5). As to the kind of experiment: Binding affinity to APC11 in asynchronous human HeLa cells incubated for 2 hrs by pull down assay. The class given is cell-based.
In data set [16] the test system is HeLa. As to the kind of experiment: Induction of mitotic arrest in human HeLa cells assessed as prolongation in metaphase at 50 uM measured up to 213 mins by time-lapse imaging analysis. Type of data set: functional, cell-based.
Data set [17] deals with HeLa. As to the kind of experiment: Induction of mitotic arrest in human HeLa cells assessed as time length at 50 uM measured up to 213 mins by time-lapse imaging analysis. Type of data set: functional. The note with it: 3.55 h.
The test system of data set [18] is HeLa. As to the kind of experiment: Induction of mitotic arrest in human HeLa cells assessed as cells in prolongation at 50 uM measured up to 213 mins by time-lapse imaging analysis relative to control. Type of data set: functional. The note with it: 3.55 h.
A further data set concerns HT-1080. As to the kind of experiment: Induction of mitotic arrest in human HT-1080 cells assessed as cells in prolongation at 50 uM measured up to 213 mins by time-lapse imaging analysis relative to control. The note with it: 3.55 h. Type of data set: functional.
Another data set deals with A549. As to the kind of experiment: Induction of mitotic arrest in human A549 cells assessed as cells in prolongation at 50 uM measured up to 213 mins by time-lapse imaging analysis relative to control. Type of data set: functional. The note with it: 3.55 h.
A further data set relates to RKO. As to the kind of experiment: Induction of mitotic arrest in human RKO cells assessed as cells in prolongation at 50 uM measured up to 213 mins by time-lapse imaging analysis relative to control. To be noted: 3.55 h. The class given is functional.
A further data set has as its system MDA-MB-231. As to the kind of experiment: Effect on time length of mitosis in human MDA-MB-231 cells at 50 uM incubated for 10 to 24 hrs by live cell microscopy. The class given is functional, cell-based. The note with it: time 10-24 hrs.
In a further data set the test system is SW480. As to the kind of experiment: Effect on time length of mitosis in human SW480 cells at 50 uM incubated for 10 to 24 hrs by live cell microscopy. Type of data set: functional, cell-based. The note with it: time 10-24 hrs.

The source made the active and inactive calls. The rule behind the calls is not given here. Numbered stars: 1 amine (or outer) side, 2 acyl side, 3 side chain; on linkers, the order of the positions; unused ones are H or OH. Bridge positions count the residues as written; N and C are the ends. Square brackets hold non-standard residues; d marks the D form. Peptide text beside a SMILES is read from it. I, II: the chains in the order shown. X1 = O=C(O)CC[C@@H](C(=O)[*:2])N(CCOCCOCCOCCOCCOCCO[*:3])[*:1]; R8 = C=CCCCCCC[C@@](C)(N)C(=O)O; S5 = C=CCCC[C@](C)(N)C(=O)O; Pra = C#CC[C@H](N)C(=O)O; AEA = NCCOCC(=O)O

Anaphase-promoting complex subunit 11 (Homo sapiens), sequence (Q9NYG5 whole entry, one chain of several): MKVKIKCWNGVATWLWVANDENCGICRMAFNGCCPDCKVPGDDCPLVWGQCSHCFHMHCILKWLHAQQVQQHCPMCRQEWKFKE

For orientation: inhibition means the share of the control response that was lost under treatment. As usually defined, the IC50 is the concentration that inhibits the measured activity by half. Broadly, the Ki is the equilibrium dissociation constant of an inhibitor or competing ligand from its target. Take `CC[C@H](C)[C@@H]1NC(=O)[C@H](CCC(=O)O)NC(=O)[C@H](CCCCN)NC(=O)[C@H]([C@@H](C)CC)NC(=O)[C@](C)(NC(=O)[C@H](Cc2c[nH]c3ccccc23)NC(=O)[C@H](Cc2c[nH]c3ccccc23)NC(=O)[C@H](CCC(=O)O)NC(C)=O)CCCCCC/C=C\CCC[C@@](C)(C(=O)N[C@@H](CCCNC(=N)N)C(=O)N[C@@H](CCCNC(=N)N)C(=O)N[C@@H](C)C(N)=O)NC(=O)[C@H](CCCNC(=N)N)NC(=O)[C@H](CCC(N)=O)NC1=O` (Ac-EWW[R8]IKEIQR[S5]RRA-NH2; staple (Z) 4-11): the inhibition result with HeLa [1] was “Active; Compound Exerted Better Inhibitory Effect Than Tame”; in the data set on HeLa [5] it was 100%; in the data set with HeLa [7], greater than 80%. In addition, the inhibition result in the data set on HeLa [2], with HeLa [3] and in the data set with HeLa [4] was “Active” in each case. Further, in data set [6], the inhibition entry is “inactive”. Further, the IC50 in [8] was determined as 1.96 µM. Besides, the Ki in data set [9] is 5.03 µM. In addition, in the data set filed under Homo sapiens, the Ratio IC50 amounted to 4.5. In addition, the Activity entry in the data set with TERT-RPE1 is “No effect”.

Regarding `C#CC[C@H](NC(=O)[C@H](Cc1c[nH]c2ccccc12)NC(=O)[C@H](CCC(=O)O)NCCOCCOCCOCCOCCOCCOC(=O)CNC(=O)[C@H](Cc1ccccc1)NC(=O)[C@H](Cc1c[nH]c2ccccc12)NC(=O)[C@H](Cc1ccccc1)NC(=O)CNC(C)=O)C(=O)N[C@]1(C)CCCCCC/C=C\CCC[C@@](C)(C(=O)N[C@@H](CCCNC(=N)N)C(=O)N[C@@H](CCCNC(=N)N)C(=O)N[C@@H](C)C(N)=O)NC(=O)[C@H](CCCNC(=N)N)NC(=O)[C@H](CCC(N)=O)NC(=O)[C@H]([C@@H](C)CC)NC(=O)[C@H](CCC(=O)O)NC(=O)[C@H](CCCCN)NC(=O)[C@H]([C@@H](C)CC)NC1=O` (I: H-[X1]W[Pra][R8]IKEIQR[S5]RRA-NH2 / II: Ac-GFWFG; ester I:1-II:C; staple (Z) I:4-I:11), the Drug uptake result in data set [10], in [11] and in data set [12] was “Active” each time. Besides, the Time in the data set with HeLa [13] was roughly 74 min. Also, the result (in the data set with HeLa [14]; in data set [15]) was inactive.

Take `CC[C@H](C)[C@@H]1NC(=O)[C@H](CCC(=O)O)NC(=O)[C@H](CCCCN)NC(=O)[C@H]([C@@H](C)CC)NC(=O)[C@](C)(NC(=O)[C@H](Cc2c[nH]c3ccccc23)NC(=O)[C@H](Cc2c[nH]c3ccccc23)NC(=O)[C@H](CCC(=O)O)NC(=O)COCCNC(=O)CNC(=O)[C@H](Cc2ccccc2)NC(=O)[C@H](Cc2c[nH]c3ccccc23)NC(=O)[C@H](Cc2ccccc2)NC(=O)CNC(C)=O)CCCCCC/C=C\CCC[C@@](C)(C(=O)N[C@@H](CCCNC(=N)N)C(=O)N[C@@H](CCCNC(=N)N)C(=O)N[C@@H](C)C(N)=O)NC(=O)[C@H](CCCNC(=N)N)NC(=O)[C@H](CCC(N)=O)NC1=O` (Ac-GFWFG[AEA]EWW[R8]IKEIQR[S5]RRA-NH2; staple (Z) 10-17): the outcome in the data set on HeLa [16] was Active. Moreover, the Time result in the data set with HeLa [17] was “<=2 hr”. Moreover, the Activity is 75% in the data set with HeLa [18]; 75% in the data set on HT-1080; 75% in the data set on A549; 75% in the data set with RKO; “No effect” with MDA-MB-231; “No effect” with SW480.
